Results published in patent publication US20180200257A1, “METHODS FOR THE TREATMENT OF INFLAMMATORY DISORDERS” (Galapagos NV, priority 2015, published 2018).

Experiments:
[1] = test system: subjects with moderately to severely active RA who have an inadequate response to methotrexate (MTX); assay: Study 2 (monotherapy) - serum CRP values; type: in vivo, human
Excerpt: (§1) Randomized, double-blind, placebo-controlled, multicenter, phase IIb dose finding study of Compound 1 (dosed as a [Compound 1:HCl:3H2O]) administered for 24 weeks as monotherapy to subjects with moderately to severely active rheumatoid arthritis who have an inadequate response to methotrexate alone
(§2) Double-blind, placebo-controlled, monotherapy study in subjects with moderately to severely active RA who have an inadequate response to methotrexate (MTX) (oral or parenteral).
(§3) 280 subjects randomized to one of 3 doses of Compound 1 (dosed as a [Compound 1:HCl:3H2O]) or to placebo, given once daily (q.d.).
(§4) Twelve weeks of treatment with Compound 1 (dosed as a [Compound 1:HCl:3H2O]) at 50 mg, 100 mg, or 200 mg q.d.; or placebo. At Week 12, all subjects on placebo and the subjects on the 50 mg dose who have not achieved 20% improvement in swollen joint count (SJC66) and tender joint count (TJC68) will be assigned to 100 mg q.d. in a blinded fashion and will continue treatment until Week 24. Subjects in the other groups will maintain their randomized treatment until Week 24.
CRP determination is available at Quest Diagnostics, Clinical Trials, Quest House, 125-135 Staines Road, Hounslow, Middlesex, TW3 3JB, United Kingdom under Catalogue n#86140.
The determination of CRP is made using Immunoturbidimetric assay for the in vitro quantitative determination of CRP in human serum and plasma on Roche/Hitachi cobas c systems, wherein human CRP agglutinates with latex particles coated with monoclonal anti-CRP antibodies. The aggregates are determined turbidimetrically (Eda et al., 1998; Price et al., 1987).
Human serum and plasma samples CRP determination was done on a Roche/Hitachi Cobas c 301 c 501/502 system which automatically calculate the analyte concentration of each sample. Samples containing precipitates are centrifuged before performing the assay.
The machine parameters are listed in Table XCI and Table XCII below, and the results at 12 weeks v using either LOCF are shown in Table XCIII and below. The Hommel-corrected p-value for the pairwise comparisons of each group with placebo is shown.
The number of subjects (N) provided in each groups corresponds to the number of subjects starting the study in each group, and the CRP data reported below corresponds to the responding subjects continuing for the entire 24 weeks on their initial treatment course.

[2] = test system: subjects with moderately to severely active RA who have an inadequate response to methotrexate (MTX); assay: Study 2 (monotherapy) - DAS28(CRP) scores; type: in vivo, human
Excerpt: as §1, §2, §3, §4
The (DAS28(CRP)) is a system developed and validated by the European League Against Rheumatism (EULAR) to measure the progress and improvement of rheumatoid arthritis and has been extensively validated (Wells et al., 2008). The DAS28(CRP) scoring includes a 28 tender and swollen joint count, CRP measurement from blood analysis, and a general health assessment on a visual analog scale (Fransen et al., 2003).
DAS28(CRP) values range from 2.0 to 10.0, and more particularly reflect the following status: • Remission: DAS28(CRP) ≤2.6 • Low Disease activity: 2.6 <DAS28(CRP) ≤3.2 • Moderate Disease Activity: 3.2 <DAS28(CRP) ≤5.1 • High Disease Activity: DAS28(CRP) >5.1
In practice, the DAS28(CRP) measurement involves the evaluation 28 different joints including in the measurement (proximal interphalangeal joints (10 joints), metacarpophalangeal joints (10), wrists (2), elbows (2), shoulders (2), and knees (2)). When looking at these joints, both the number of joints with tenderness upon touching and swelling are counted.
Secondly, C-reactive protein level is measured.
Finally, the patient makes a subjective assessment of disease activity during the preceding 7 days on a scale between 0 and 100, where 0 is “no activity” and 100 is “highest activity possible”.
The DAS28(CRP) score is then calculated as follows:
Firstly, the patient is asked to make a vertical mark on a 100 mm Visual Analog Scale (VAS) corresponding to their general health or global disease activity on a touch screen to measure the VAS value, which is used in the formula below.
Secondly, a swollen and tender joint examination is then performed on the patient. The swollen and tender joints are recorded. From this examination are obtained the total amount of swollen joints (SJC) and the total amount of tender joints (TJC), which are used in the formula below.
Thirdly, C-reactive protein (CRP) levels are measured.
Finally, the values obtained above (VAS, TJC28, SJC28, and CRP) are computed into the following Formula to obtain the DAS28(CRP) score.
DAS28(CRP)=0.56*√{square root over (TJC28)}+0.28√{square root over (SJC28)}+[…] ln(CRP+1)+0.014*VAS
The improvement (decreases) in the DAS28(CRP) scores for each patient group at weeks 1, 2, 4, 8 and 12 is shown in Table LXXXVII and Table LXXXVIII below, together with the Hommel-corrected p-value for the pairwise comparisons of each group with placebo.
The number of subjects (N) provided in each groups corresponds to the number of subjects starting the study in each group, and the DAS28 (CRP) data reported below corresponds to the responding subjects continuing for the entire 24 weeks on their initial treatment course.

[3] = 50 mg q.d., week 1, 12 weeks results
[4] = 50 mg q.d., week 2, 12 weeks results
[5] = 50 mg q.d., week 4, 12 weeks results
[6] = 50 mg q.d., week 12, 12 weeks results
[7] = 50 mg q.d., week 8, 12 weeks results
[8] = 100 mg q.d., week 1, 12 weeks results
[9] = 100 mg q.d., week 2, 12 weeks results
[10] = 100 mg q.d., week 4, 12 weeks results
[11] = 100 mg q.d., week 12, 12 weeks results
[12] = 100 mg q.d., week 8, 12 weeks results
[13] = 200 mg q.d., week 1, 12 weeks results
[14] = 200 mg q.d., week 2, 12 weeks results
[15] = 200 mg q.d., week 4, 12 weeks results
[16] = 200 mg q.d., week 12, 12 weeks results
[17] = 200 mg q.d., week 8, 12 weeks results

## O=C(Nc1nc2cccc(-c3ccc(CN4CCS(=O)(=O)CC4)cc3)n2n1)C1CC1 [Compound 1, cyclopropanecarboxylic acid {5-[4-(1,1-dioxo-thiomorpholin-4-ylmethyl)-phenyl]-[1,2,4]triazolo[1,5-a]pyridin-2-yl}-amide]
[1]; [3]
  CRP mean CFB mg/L (LOCF): -3.70 mg/L
[1]; [4]
  CRP mean CFB mg/L (LOCF): -4.16 mg/L
[1]; [5]
  CRP mean CFB mg/L (LOCF): -9.46 mg/L
[1]; [6]
  CRP mean CFB mg/L (LOCF): -4.43 mg/L
[1]; [7]
  CRP mean CFB mg/L (LOCF): -11.16 mg/L
[1]; [8]
  CRP mean CFB mg/L (LOCF): -10.33 mg/L
[1]; [9]
  CRP mean CFB mg/L (LOCF): -8.67 mg/L
[1]; [10]
  CRP mean CFB mg/L (LOCF): -12.08 mg/L
[1]; [11]
  CRP mean CFB mg/L (LOCF): -12.25 mg/L
[1]; [12]
  CRP mean CFB mg/L (LOCF): -14.17 mg/L
[1]; [13]
  CRP mean CFB mg/L (LOCF): -12.58 mg/L
[1]; [14]
  CRP mean CFB mg/L (LOCF): -13.28 mg/L
[1]; [15]
  CRP mean CFB mg/L (LOCF): -13.04 mg/L
[1]; [16]
  CRP mean CFB mg/L (LOCF): -14.85 mg/L
[1]; [17]
  CRP mean CFB mg/L (LOCF): -13.86 mg/L
[2]; [3]
  DAS28(CRP) mean CFB (LOCF): −0.70
[2]; [4]
  DAS28(CRP) mean CFB (LOCF): −0.97
[2]; 50 mg q.d., week 2, 24 weeks results
  DAS28(CRP) mean CFB (LOCF): −1.03
[2]; [5]
  DAS28(CRP) mean CFB (LOCF): −1.37
[2]; 50 mg q.d., week 4, 24 weeks results
  DAS28(CRP) mean CFB (LOCF): −1.43
[2]; [6]
  DAS28(CRP) mean CFB (LOCF): −1.69
[2]; 50 mg q.d., 12 weeks results
  % patients reaching low disease activity and/or remission at week 12 (LOCF): 24%
  % patients reaching low disease activity at week 12 (LOCF): 13%
  % patients reaching remission at week 12 (LOCF): 11%
[2]; 50 mg q.d., 24 weeks results
  % patients reaching low disease activity and/or remission at week 24 (LOCF): 36%
  % patients reaching low disease activity at week 24 (LOCF): 17%
  % patients reaching remission at week 24 (LOCF): 19%
[2]; [7]
  DAS28(CRP) mean CFB (LOCF): −1.65
[2]; 50 mg q.d., week 8, 24 weeks results
  DAS28(CRP) mean CFB (LOCF): −1.71
[2]; [8]
  DAS28(CRP) mean CFB (LOCF): −0.88
[2]; [9]
  DAS28(CRP) mean CFB (LOCF): −1.04
[2]; 100 mg q.d., week 2, 24 weeks results
  DAS28(CRP) mean CFB (LOCF): −1.04
[2]; [10]
  DAS28(CRP) mean CFB (LOCF): −1.50
[2]; 100 mg q.d., week 4, 24 weeks results
  DAS28(CRP) mean CFB (LOCF): −1.48
[2]; [11]
  DAS28(CRP) mean CFB (LOCF): −2.04
[2]; 100 mg q.d., 12 weeks results
  % patients reaching low disease activity and/or remission at week 12 (LOCF): 28%
  % patients reaching low disease activity at week 12 (LOCF): 13%
  % patients reaching remission at week 12 (LOCF): 14%
[2]; 100 mg q.d., 24 weeks results
  % patients reaching low disease activity and/or remission at week 24 (LOCF): 50%
  % patients reaching low disease activity at week 24 (LOCF): 29%
  % patients reaching remission at week 24 (LOCF): 21%
[2]; [12]
  DAS28(CRP) mean CFB (LOCF): −1.91
[2]; [13]
  DAS28(CRP) mean CFB (LOCF): −1.15
[2]; [14]
  DAS28(CRP) mean CFB (LOCF): −1.54
[2]; 200 mg q.d., week 2, 24 weeks results
  DAS28(CRP) mean CFB (LOCF): −1.55
[2]; [15]
  DAS28(CRP) mean CFB (LOCF): −1.87
[2]; 200 mg q.d., week 4, 24 weeks results
  DAS28(CRP) mean CFB (LOCF): −1.87
[2]; [16]
  DAS28(CRP) mean CFB (LOCF): −2.33
[2]; 200 mg q.d., 12 weeks results
  % patients reaching low disease activity and/or remission at week 12 (LOCF): 45%
  % patients reaching low disease activity at week 12 (LOCF): 28%
  % patients reaching remission at week 12 (LOCF): 17%
[2]; 200 mg q.d., 24 weeks results
  % patients reaching low disease activity and/or remission at week 24 (LOCF): 46%
  % patients reaching low disease activity at week 24 (LOCF): 19%
  % patients reaching remission at week 24 (LOCF): 28%
[2]; [17]
  DAS28(CRP) mean CFB (LOCF): −2.24
